Measurements from patent publication US20010049372A1, “Antiviral nucleoside analogues” (BioChem Pharma Inc., priority 1998, published 2001).
Read-outs that look alike come from different tables or passages of the source.

Assays:
CCR18 (Lamivudine^R) = assay: Drug-resistant clinical isolates in PBMCs (p24); type: cell-based, HIV-1; conditions: Human immunodeficiency virus 1, PBMC
Description: (§1) ANTIVIRAL ASSAYS. The anti-HIV-1 activity of the compound A (−) were assessed by employing HIV-1IIIB in a variety of cell types as previously described (Gu et al., 1992, 1994, 1999; Rando et al., 1995; Salomon et al., 1994). Briefly, cells were incubated with virus at a multiplicity of infection (MOI) of 0.005 for T cell assays and an MOI of 0.5 for monocytic cell assays for 3 hrs. Unbound virus was then removed by washing the cells, followed by seeding the cells into a 96-well plate. The infected cells were cultured in the presence of a serial concentrations of the test compound for 5-7 days. The anti-HIV-1 efficacy was determined by testing for HIV-1 RT activity or p24 level in the cell culture supernatants. All assays were performed in duplicate. Zidovudine and/or lamivudine were used as controls in each experiment.
(§2) Clinical strains were isolated from PBMCs of HIV-1 infected individuals through co-culture with PBMCs from normal dornors. To determine the RT genotype of the HIV-1 clinical isolates, the proviral DNA was extracted from infected CD4^+ T-cells or PBMCs and the complete RT coding regions were amplified by PCR as previously reported (Gu et al 1992). The PCR product was purified and then directly sequenced using primer RTS (5′-CCAAAAGTTAAACAATGGC-3′) which is located at the 5′ portion of the RT coding region (nucleotide 2603-2621 of HXB2-D coordinates). Antiviral activity was evaluated as described in example 10.

105/F (zidovudine^R) = assay: Drug-resistant clinical isolates in PBMCs (p24); type: cell-based, HIV-1; conditions: Human immunodeficiency virus 1, PBMC
Description: as §1, §2

CCR19 (Lamivudine^R) = assay: Drug-resistant clinical isolates in PBMCs (p24); type: cell-based, HIV-1; conditions: Human immunodeficiency virus 1, PBMC
Description: as §1, §2

105/A (wt) = assay: Drug-resistant clinical isolates in PBMCs (p24); type: cell-based, HIV-1; conditions: Human immunodeficiency virus 1, PBMC
Description: as §1, §2

CCR15 (Lamivudine^R) = assay: Drug-resistant clinical isolates in PBMCs (p24); type: cell-based, HIV-1; conditions: Human immunodeficiency virus 1, PBMC
Description: as §1, §2

HIV-1macBAL = assay: Anti-HIV-1 assay, dual tropic strain (p24); type: cell-based; conditions: determined by p24
Description: as §1
(§3) Furthermore, antiretroviral activity of the compound A (−) was also assessed using different types of HIV-1 strains. […]

[1] = Cellular toxicity by [3H]-thymidine uptake; type: cell-based, human; conditions: human, Table 14, PHA-stimulated PBMCs, read-out: CC50 (μM) [^3H]TTP incorporation in: PBMC
Description: Cellular toxicity was assessed by [^3H]thymidine uptake (de Muys et al. 1999) and WST-1 staining. In the [^3H]thymidine uptake experiments, Molt-4, HT1080, DU-145, HepG2 and HSF, were plated at a concentration of 1-2×10^3 cells per well (96 well plates). PHA-stimulated PBMCs were cultured at a concentration of 4×10^4 cells per well. Following a 24 hr pre-incubation period, test compounds (10^−4 M to 10^−10 M) were added and the cells were incubated for an additional 72 hrs. [^3H]thymidine was added during the final 18 hr incubation period. The cells were then washed once with PBS, treated with trypsin if the cells were adherent, and resuspended in water (hypotonic lysing of cells). The cellular extract was applied directly to a Tomtec Harvester 96. The 50% cytotoxic concentration (CC50) was determined by comparing the radioactive counts per minute obtained from drug-tested samples to those obtained from the control (untreated) cells.

HIV-19881 = assay: Anti-HIV-1 assay, non-syncytium inducing strain (p24); type: cell-based; conditions: Human immunodeficiency virus 1, PBMC; HIV-19881, PBMCs, determined by p24
Description: as §1, §3

K65R = assay: Recombinant drug resistant HIV-1 variants (RT activity); type: cell-based; conditions: Human immunodeficiency virus 1
Description: as §1
Recombinant HIV-1 variants were prepared by introducing the designed mutations into HXB2-D by site-directed mutagenesis as described (Gu et al. 1992, 1994). The virus stocks were prepared by transfecting MT-4 cells with infectious viral DNA constructs. Antiviral activity of the compound A (−) was evaluated as described in example 10.

[2] = tested on: Zidovudine^R/Lamivudine^R (2) clinical HIV-1 isolates; assay: Clinical HIV-1 isolates (RT activity); type: cell-based; conditions: Human immunodeficiency virus 1, Zidovudine^R/Lamivudine^R (2 isolates)
Description: as §1, §2

[3] = tested on: Zidovudine^S/Lamivudine^S (7) clinical HIV-1 isolates; assay: Clinical HIV-1 isolates (RT activity); type: cell-based; conditions: Human immunodeficiency virus 1, Zidovudine^S/Lamivudine^S (7 isolates)
Description: as §1, §2

DU-145 = assay: Cellular toxicity by [3H]-thymidine uptake; type: cell-based; conditions: 72 hrs
Outline: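 Cells plated at 1-2×10^3/well, pre-incubated 24 h, then exposed 72 h to 10-fold serial compound dilutions (10^−4 M to 10^−10 M). [3H]-thymidine was added for the final 18 h and DNA incorporation counted after hypotonic lysis and harvesting. CC50 derived from cpm relative to untreated controls.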

[4] = Human immunodeficiency virus 1, PBMC, PBMCs
[5] = Human immunodeficiency virus 1, m/m cells
[6] = read-out: EC50 (μM), mean EC50 values
[7] = read-out: EC50 (μM), ranges of EC50s of the isolates in the same group

Compound | IC50 (CCR18 (Lamivudine^R)) | IC50 (105/F (zidovudine^R)) | IC50 (CCR19 (Lamivudine^R)) | IC50 (105/A (wt)) | IC50 (CCR15 (Lamivudine^R)) | EC50 (HIV-1macBAL; [4]) | EC50 (HIV-1macBAL; [5]) | CC50 at 72 h [1] | EC50 (HIV-19881) | EC50 (K65R) | EC50 [2] | EC50 [3, 6] | EC50 [3, 7] | CC50 (μM) [^3H-]TTP incorporation in: U-145 (DU-145; Table 4) | CC50 (DU-145; Table 14, read-out: CC50 (μM) [^3H]TTP incorporation in: U145)
Nc1nc(NC2CC2)c2ncn([C@H]3CO[C@@H](CO)O3)c2n1 [Compound A (-), (−)-(2R,4R)-2-hydroxymethyl-4-(2′-amino-6′-cyclopropylamino-purine-9′-yl)-1,3-dioxolane] | 1300 nM | 840 nM | 1600 nM | 600 nM | 300 nM | 4140 nM | 22 nM | 286 µM | 590 nM | 1030 nM | 0.33 µM | 0.15 µM | 0.032 to 0.31 µM |  | 
Nc1ccn([C@@H]2CS[C@H](CO)O2)c(=O)n1 [Lamivudine, lamivudine] | 300000 nM | 170 nM | 95000 nM | 65 nM | 95000 nM |  |  | > 500 µM |  | 4310 nM | 4.1 µM | 0.23 µM | 0.028 to 0.69 µM | >500/100 | 
Cc1cn([C@H]2C[C@H](N=[N+]=[N-])[C@@H](CO)O2)c(=O)[nH]c1=O [Zidovudine, zidovudine] | 4.2 nM | 230 nM | 3 nM | 4.3 nM | 3 nM | 43 nM | < 1.1 nM | 9 µM | 1.7 nM |  | 1.15 µM | 0.021 µM | 0.0034 to 0.051 µM |  | > 10 µM
